The values below come from patent US20220305092A1, “MEDICAMENT AND FOOD FOR PREVENTING OR TREATING NOVEL CORONAVIRUS PNEUMONIA COVID-19 AND USE THEREOF” (GUANGZHOU CENTURY CLINICAL RESEARCH CO., LTD, priority 2020, published 2022).

One experiment concerns COVID-19 virus. The experiment is described as follows: Inhibition of cytopathic effect caused by COVID-19 virus in VeroE6 cells. To be noted: for inhibition of the cytopathic effect caused by the COVID-19 virus (in words): Example 2, VeroE6 cells. It is filed as cell-based. On the technique in general: Protection from cytopathic effect is a common read-out in antiviral testing.

For the next experiment, the system named is occludin protein. The experiment is described as follows: Occludin mRNA expression in jejunum tissue of lipopolysaccharide-treated mice (quantitative PCR). Format: in vivo, mouse. To be noted: 100 mg/kg, model 0.54, blank 1.04. Here is the method:
(§1) Animal grouping and administration: The animals were randomly divided into a blank group, a model group, a lysozyme group (100 mg/kg), lysozyme+monoammonium glycyrrhizinate group A (100 mg/kg+2 mg/kg), lysozyme+monoammonium glycyrrhizinate group B (100 mg/kg+10 mg/kg), lysozyme+monoammonium glycyrrhizinate group C (100 mg/kg+20 mg/kg), and a lysozyme+dipotassium glycyrrhizinate group (100 mg/kg+2 mg/kg), with eight animals in each group. Each drug group was administered intragastrically by each dose of drugs every day, while the blank group and the model group were administered with normal saline. The administration was performed for 30 consecutive days.
(§2) Model establishment: After administration, the animals of each group except the blank group were intraperitoneally injected with 15 mg/kg of lipopolysaccharides, and the blank group was injected with normal saline. The animals were fasted for 12 hours after injection.
(§3) Determination of expression of tight junction proteins in intestinal tissue: After the animals were sacrificed, jejunum tissue samples were taken for RNA extraction, the relative expression levels of occludin protein and Claudin-1 protein in the tissues were detected by quantitative PCR and the results were shown in Table 6.

The test system of experiment [1] is guinea pigs which had inhaled smoke. The experiment is described as follows: Airway resistance and lung function of guinea pigs which had inhaled smoke. Format: in vivo, guinea pig. How it is done: The smoke-induced model was a classic animal model for chronic obstructive pulmonary disease. After inhaling smoke for a long period of time, animals could suffer from increased mucus secretion, airway obstruction, lung function decline, etc. The effect of the lysozyme on airway obstruction was evaluated by means of the model establishment method in the present experiment.
Lysozyme, monoammonium glycyrrhizinate, and monopotassium glycyrrhizinate.
Male Hartley guinea pigs, weighing 400 to 500 g, were randomly divided into a blank group, a model group, a lysozyme oral administration group (200 mg/kg), a lysozyme inhalation group (2 mg/kg), lysozyme+monoammonium glycyrrhizinate inhalation group (2 mg/kg+0.1 mg/kg), lysozyme+monopotassium glycyrrhizinate oral administration group I (200 mg/kg+20 mg/kg), and lysozyme+monopotassium glycyrrhizinate oral administration group II (200 mg/kg+40 mg/kg), with eight animals in each group.
The animals in each group except the blank group were exposed to cigarette smoke by using a smoke exposure system for oro-nasal inhalation only, such that the animals inhaled smoke of five cigarettes within 40 minutes per day, for 5 exposure days per week, for 12 consecutive weeks.
The lysozyme and monoammonium glycyrrhizinate used for inhalation administration were respectively crushed into powders with a particle size of less than 10 μm. The lysozyme and monopotassium glycyrrhizinate used for oral administration were respectively dissolved in normal saline.
The animals in each group except the blank group and the model group were administered once a day for 4 consecutive weeks from the 8th week after the model establishment began. The inhalation administration groups were administered by means of an oro-nasal inhalation exposure system, while the oral administration groups were administered intragastrically. Animals in the blank group and the model group were administered intragastrically with normal saline per day.
Airway resistance measurement and 100 ms (millisecond) expiratory volume measurement were performed after administration.
The animals were placed in a double chamber plethysmography system, and after the animals were left in a tranquil state for 10 minutes, the specific airway resistance (sRaw) was measured. The animals were anesthetized by intramuscular injection of ketamine, then a catheter was then inserted into the trachea, and the forced expiratory volume in 100 ms (FEV 100) of the animals was measured through a lung function testing system.

For experiment [2], the system named is lipopolysaccharide-induced intestinal barrier dysfunction in mice. Description: Intestinal permeability (serum FITC-glucan) in lipopolysaccharide-induced intestinal barrier dysfunction in mice. Format: in vivo, mouse. To be noted: 100 mg/kg intragastrically, 30 days, model 35.06, blank 9.40. The text has this:
Lipopolysaccharides could cause impaired intestinal function in animals. The protective effect of lysozyme and lysozyme combinations against lipopolysaccharide-induced intestinal barrier dysfunction in mice were studied in the present experiment.
Test drugs: lysozyme, monoammonium glycyrrhizinate, and dipotassium glycyrrhizinate.
Test animals: clean-grade male C57BL/6 mice, weighing 20 to 25 g.
Animal grouping and administration: The animals were randomly divided into a blank group, a model group, a lysozyme group (100 mg/kg), lysozyme+monoammonium glycyrrhizinate group A (100 mg/kg+2 mg/kg), lysozyme+monoammonium glycyrrhizinate group B (100 mg/kg+10 mg/kg), lysozyme+monoammonium glycyrrhizinate group C (100 mg/kg+20 mg/kg), and a lysozyme+dipotassium glycyrrhizinate group (100 mg/kg+2 mg/kg), with eight animals in each group. […]
Determination of intestinal permeability: The animals of each group were administered intragastrically with 600 mg/kg of FITC-glucan (dissolved in a phosphate buffer), and after 4 hours, blood was taken from eyeballs. The content of the FITC-glucan in the serum was measured by means of fluorescence spectrometry (with an excitation wavelength of 480 nm and an emission wavelength of 520 nm), and the results were shown in Table 5.

A further experiment has as its system Claudin-1 protein. Description: Claudin-1 mRNA expression in jejunum tissue of lipopolysaccharide-treated mice (quantitative PCR). It is filed as in vivo, mouse. To be noted: 100 mg/kg, model 0.73, blank 1.07. How it is done:
as §1, §2, §3

The mark [3] stands for this setting: inhalation, 2 mg/kg once a day for 4 weeks.

Consider `CC1(C)[C@@H](O[C@H]2O[C@H](C(=O)O)[C@@H](O)[C@H](O)[C@H]2O[C@@H]2O[C@H](C(=O)O)[C@@H](O)[C@H](O)[C@H]2O)CC[C@]2(C)[C@H]3C(=O)C=C4[C@@H]5C[C@@](C)(C(=O)O)CC[C@]5(C)CC[C@@]4(C)[C@]3(C)CC[C@@H]12.N` [Monoammonium glycyrrhizinate, monoammonium glycyrrhizinate], for which the “Inhibition rate (%)” value was found to be 23.35 ± 5.43% in the experiment on COVID-19 virus (1000 μg/ml, VeroE6 cells, 100 TCID50, 4 days) and 29.42 ± 7.16% with COVID-19 virus (2000 μg/ml, VeroE6 cells, 100 TCID50, 4 days). Further, in the experiment with COVID-19 virus, the “inhibition of the cytopathic effect caused by the COVID-19 virus (in words)” value was “relatively weak inhibition effect”.
For the compound lysozyme, the “Relative expression quantity of Occludin mRNA” value in the experiment on occludin protein was 0.69 ± 0.07. The “100 ms expiratory volume” value in experiment [1] (setting [3]) stood at 7.68 ± 1.36 mL; in experiment [1] (oral administration, 200 mg/kg once a day for 4 weeks, model 4.18, blank 11.86), 5.79 ± 2.03 mL. Besides, the “Airway resistance (cmH2O · s)” value in experiment [1] (setting [3]) stood at 3.10 ± 0.14 cmH2O · s; in experiment [1] (oral administration, 200 mg/kg once a day for 4 weeks, model 4.72, blank 1.43), 3.79 ± 0.30 cmH2O · s. In experiment [2], the “Content of FITC-glucan” value is 27.53 ± 3.21 µg/mL. Also, the “Inhibition rate (%)” value in the experiment with COVID-19 virus (350 μg/ml, Example 3) is on record as 6.67 ± 1.56%. Moreover, the “inhibition of the cytopathic effect caused by the COVID-19 virus (in words)” value in the experiment with COVID-19 virus is on record as “significantly inhibited”. In the experiment on Claudin-1 protein, the “Relative expression quantity of Claudin-1 mRNA” value is recorded as 0.79 ± 0.16.
